Measurements published in patent US12715850B2, “Low toxicity NMP substitutes and uses thereof” (Advancion Corporation, priority 2020, dated 2026).

Columns and labels:
animals [1] = settings: long-term oral exposures in animals; cited from earlier work
[2] = following inhalation, oral and dermal exposure in humans and animals; cited from earlier work
[3] = oral reproduction toxicity study; at doses lower than those that caused maternal toxicity; cited from earlier work
animals [4] = settings: animals ingested NMP repeatedly at lower levels; cited from earlier work
experimental animals = settings: high levels over short time by inhalation, dermal exposure, and ingestion; cited from earlier work
[5] = Solubility of the product in water and mineral oil; assay type: physicochemical
Protocol: The resulting nitro amidef was added to a 2 L Parr reactor along with 300 g methanol and 30 g of damp Raney® nickel. The reactor was purged with hydrogen. The reagents were stirred and reacted at 65° C. and 750 psig hydrogen. In a separate vessel, a blend of 400 g (2.13 mol) of nitroamide (prepared in previous example) and 431 g (5.31 mol) of formaldehyde (37% aqueous, Fisher Scientific) was prepared. The nitroamide/formaldehyde mixture was added to the reactor under stirring while maintaining 65° C. Followed by flushing with 50 g (0.62 mol) of 37% aqueous formaldehyde. The reactor contents were held at 65° C. for 2 hours followed by cooling to 25° C. The reactor was vented and the catalyst filtered off the product. After rinsing the catalyst with methanol (2×20 mL), the filtrate was concentrate under vacuum. The product was isolated and purified using vacuum distillation to provide a pale yellow liquid recovered in 75% yield from DMAA having purity >99% by GC-FID. The boiling point was determined to be 170° C. at 40 mmHg, 145° C. at 15 mmHg, and 137° C. at 10 mmHg. ^1H NMR (400 MHz, D2O): d=2.95 (s, 3H), 2.88 (s, 3H), 2.24 (m, 2H), 2.05 (s, 6H), 1.54 (m, 2H), 0.91 (s, 6H).

In the case of CN1CCCC1=O [NMP, N-methyl-2-pyrrolidone], the “effects of long-term oral exposures” value (animals [1]) is given as “increased incidence of large kidneys, kidneys diagnosed with chronic problems, fluid in the pleural cavity and small testes”, the absorption [2] is given as “well absorbed” and the developmental toxicity [3] is given as “decrease in fetal weight and malformations”. For the same compound, the adverse effects (animals [4]) was “changes in body weight, liver weight, neurotoxicity, and thymus atrophy” and the toxicity (experimental animals) was “low toxicity”.

For CN(C)C(=O)CCC(C)(C)N(C)C [Example 3, 4-(dimethylamino)-N,N-4-trimethylpentamide], the “solubility in mineral oil” value ([5]; mineral oil) was “soluble” and the solubility in water ([5]; water) was “soluble”.
